For 62 compounds, melting point results are on record in a melting point compilation (Tetko et al.; mined from patent text by program, amines drawn as free bases though some values may be those of a salt).

SMILES strings stand for the structures.

A word on the melting point: it is the temperature of the solid-liquid transition.

Consider `COc1ccc(Cn2nc(-n3cnn(Cc4ccc(F)cc4)c3=O)cc2C(=O)NCc2cccnc2)cc1`, for which the melting point was in the range of 210 to 211 °C.
`CC(=O)Nc1ccc(-c2c(Cl)c(CN3C(=O)CCC3=O)nc3sc4c(c23)CCNC4)cc1` yielded a melting point of 300 °C.
Under `CCOC(=O)c1c(S(=O)Cc2nccn2C)nc2cc(OC)c(OC)cc2c1-c1ccc(OC)c(OC)c1` (configuration not stated) stands 151 to 152 °C; under `Cc1cc(C)c(/C=C2\C(=O)N(CN3CCN(C)CC3)c3ccccc32)[nH]1`, 160 to 164 °C.
`O=C1NC(=O)c2ccccc2/C1=C/Nc1ccc(CCN2CCCC2)cc1` came in with a melting point of 224 to 225 °C.
Under `CCOC(=O)c1[nH]c2ccc(Cl)cc2c1-c1ccccc1F` stands 191 to 193 °C; under `Cc1cc(=O)[nH]c2cc(OCCCN3CCC(NC(=O)c4ccccc4)CC3)ccc12`, 275 to 276 °C; under `O=[N+]([O-])c1cc(CC(O)(Cn2cncn2)Cn2cncn2)ccc1Cl`, 136 to 137 °C.
To `Cc1ccc(S(=O)(=O)n2c(I)cc3cc(F)cnc32)cc1` belongs 158 °C; to `CSc1nn2c(O)cc(C)nc2c1S(=O)(=O)c1ccc(C)cc1`, over 230 °C.
Under `CC(C)CN1CCN(CCc2ccc(-c3cccc(N)n3)cc2)CC1` stands 85 to 88 °C; under `CCCN1CCN(c2ccc(C(C)=O)cc2)CC1`, 68 to 70 °C; under `CCOC(=O)c1cn2c(n1)CN=C(c1ccccn1)c1cc(Br)ccc1-2`, 227 to 230 °C.
`COc1ccc(C(=O)Nc2c(C)c(C)c3oc(C)c(-c4ccc(F)cc4)c3c2C)cc1`: the melting point was in the range of 225 to 227 °C.
Under `CC(O)(CNC(=S)Nc1ccc(Br)cc1)C(=O)Nc1ccc([N+](=O)[O-])c(C(F)(F)F)c1` (configuration not stated) stands 192 to 195 °C.
To `O=C(O)CCC(O)c1ccc(-c2ccccc2)cc1` (configuration not stated) belongs 139 to 140 °C; to `CCc1nc(O)cc(O)n1`, 312 to 315 °C.
`O=[N+]([O-])c1ccc(CS(=O)(=O)CCO)c(CS(=O)(=O)CCO)c1` came in with a melting point of 126 to 128 °C.
Under `COc1cc(C)nc(Nc2ccc(Cl)cc2)n1` stands 101 to 103 °C; under `CCc1ccc2c(c1)C=Cc1oc(C)nc1C2c1cn(Cc2nc(C(=O)O)co2)c(=O)[nH]c1=S` (configuration not stated), 210 °C; under `CCN(CC)c1ccc(Nc2ccnc(Nc3cc(OC)c(OC)c(OC)c3)n2)cc1`, 87 °C.
As to `N#Cc1c(Cl)cc(Cl)cc1[N+](=O)[O-]`, the melting point was 102 to 103 °C.
Under `COc1ccc(Cn2c(=O)cc(-c3ccccn3)c3cnc(N4CCC[C@H]4CO)nc32)cc1Cl` stands 184 to 186 °C; under `COc1ccc(-c2cccs2)cc1OC1CCCC1`, 67 to 68 °C; under `COC(=O)c1ccc(Oc2c(C)n(CC(=O)O)c3ccc(Cl)cc23)cc1`, 196 to 197 °C.
Under `CCc1nc2c(C)nc(C)nc2n1-c1ccc(CCOC(=O)NS(=O)(=O)c2ccc(C)cc2)cc1` stands 162 °C.
For the compound `CCCc1cc(Cl)c2oc(Cc3ccc(OC)cc3)c(C)c2c1OC(=O)OCC`, the melting point lay in the range of 99 to 100 °C.
Under `COc1ccc(C(=O)Nc2ccc(F)c(F)c2)cc1NCc1cccnc1` stands 148 to 149 °C; under `Clc1ccc(-c2nc(-n3ccnc3)oc2CCC2=NCCO2)cc1`, 120 to 121 °C.
To `COc1ccc(NC(=O)c2ccc(OC)c(NC(=S)Nc3cc(Cl)cc(Cl)c3)c2)cc1` belongs 175 to 182 °C; to `CCOc1ccc(CCCCC=CC(=O)O)cc1`, 62 to 63 °C; to `O=C(CCCCCCOc1ccc(-c2ccccc2)cc1)NO`, 147 to 149 °C.
Under `NNC(=O)N(O)Cc1ccc(OCc2csc(-c3ccccc3)n2)cc1` stands 144 to 145 °C.
Compound `N#Cc1cc(NC(=O)c2ccccc2F)ccc1-n1nc(C(F)(F)F)cc1C(F)(F)F` came in with a melting point of 132 to 134 °C.
Consider `CCCCc1ccc2nnc(C(=O)O)cc2c1`, for which the melting point fell in the range of 131 to 133 °C.
Compound `O=C(CON1C(=O)c2ccccc2C1=O)NOCc1ccccc1` came in with a melting point of 118 to 120 °C.
To `Cc1cc(C(=O)Nc2cc(Oc3ccc4nc(NC(=O)C5CC5)cn4n3)ccc2Cl)n(C)n1` belongs 255 °C; to `CCN(C(=O)C(C)CSC(c1ccccc1)(c1ccccc1)c1ccccc1)c1cn(-c2cccnc2)nc1Cl` (configuration not stated), 64 to 66 °C.
In turn, `CN(CC1CCCCC1)C(=O)c1ccc2nonc2c1` had a melting point of 71 to 72 °C.
To `OC(Cn1cncn1)(c1ccc(F)cc1)C(F)(F)c1ccc(F)cc1` (configuration not stated) belongs 128 to 130 °C; to `CC(C)(C)OC(=O)NCc1ccccc1N`, 94 to 95 °C.
For the compound `COc1cc(OC)nc(Cc2ccccc2NC(=O)OC(C)(C)C)n1`, the melting point is 98 to 100 °C.
To `CCc1[nH]n(C2CCCC2)c2nc(-c3ccc(OC)c(OCCN4CCOCC4)c3)nc(=O)c1-2` belongs 205 to 206 °C; to `COc1ccc(-c2ccc(OC(C)CC(C)Oc3ccc(-c4ccc(OC)cc4)cc3)cc2)cc1` (configuration not stated), 164 °C.
For the compound `CC(=O)OC[C@H]1O[C@@H](c2nc(C(N)=O)c(N)[nH]2)[C@H](OC(C)=O)[C@@H]1OC(C)=O`, the melting point was 128 to 129 °C.
On to `O=Cc1cc2ccsc2s1`, for which the melting point was in the range of 43 to 45 °C.
Under `Cc1ccc(Cn2c(-c3ccccc3)nc(Cl)c2CO)cc1` stands 173 to 175 °C; under `COC(=O)Nc1nc2c(C(C)C)cc(SC3=C(O)C[C@@](CCc4ccc(O)cc4)(C(C)C)OC3=O)c(C)c2s1`, 150 to 151 °C.
To `C=C(c1ccc(C(=O)OC)cc1)c1cc2c(cc1C)C(C)(C)CCC2(C)C` belongs 167 to 168 °C; to `CC(=O)N1CC(Oc2c(C)cccc2C)C1`, 40 to 42.5 °C; to `CCC(=O)OC1=C(CCCCCCCCC[Si](C)(C)C)C(=O)c2ccccc2C1=O`, 41 to 43 °C.
To `NC(=O)N(O)Cc1cccc(OCc2coc(-c3ccc(F)cc3)n2)c1` belongs 89 to 91 °C; to `COC(=O)c1ccc(-c2nc(-c3ccc(Cl)s3)co2)cc1`, 189 to 190 °C.
Regarding `CCOC(CNC(=N)NN1CCc2cc(Cl)ccc21)OCC`, the melting point fell in the range of 163 to 165 °C.
To `Cc1ccc2nc(-c3ccccc3)cc(OCc3ccccc3)c2c1` belongs 139 °C; to `Clc1nsnc1N1CCOCC1`, 43 to 45 °C.
Under `CC(C#N)c1cccc(C(=O)c2cc3sccc3s2)c1` (configuration not stated) stands 75 °C; under `CCc1cccc(CC)c1NC(=O)Nc1cnc(C)nc1-c1ccccc1Cl`, 186 to 187 °C; under `Cc1nccn1-c1ccc(NC(=O)CCc2cnoc2-c2ccc(Cl)cc2)cn1`, 193 to 194 °C.
To `COC(=O)c1cn(S(=O)(=O)c2ccc(C)cc2)c(C)c1C` belongs 108 to 114 °C; to `CCCCN(C(=O)c1cc(C(C)(C)C)c(O)c(C(C)(C)C)c1)C1CC(C)(C)N(OC(C)=O)C(C)(C)C1`, 161 to 164 °C; to `CC1(C)CCC(Cc2ccc(Cl)cc2)=C(O)C1=O`, 80 to 82 °C.
